Assay results from US20080038335A1, “METHOD, FORMULATION, AND USE THEREOF FOR IMPROVED ORAL ABSORPTION OF PHARMACEUTICALS OR NUTRIENTS” (SHANGHAI TIANBO BIOTECHNOLOGY CO., LTD., priority 2005, published 2008).

What was measured:
[1] = oral, Dong et al. 2003; cited from earlier work
[2] = Solubility in 90% ethanol (Chinese Pharmacopeia method); assay type: physicochemical; details: 25° C.±2° C., observed at 30 minutes
Experimental: The solution is observed at 30 minutes, and it is defined as complete dissolution when no solute particles or droplets are noticed.
• 1. Dissolve ginsenoside Rg3 in ethanol. • 100 mg test ginsenoside Rg3 was added to 100 ml of 90% ethanol at 25° C.±2° C., and forcefully shaken for 30 seconds every 5 minutes. […] Preparation of Rg3 solution in ethanol. • The ginsenoside Rg3-ethanol solution is prepared according to Rg3's solubility, and this solution will be used to determine the percentage of polyoxyethylene hydrogenated castor oil in formulation. • 3. Establishment of artificial gastric and intestinal environments. • The artificial gastric and intestinal fluids are prepared in accordance to experimental example 2. • 4. Determination of the proportion of protectant polyoxyethylene hydrogenated castor oil (Cremophor RH40) in ginsenoside Rg3-ethanol solution. • Polyoxyethylene hydrogenated castor oil (Cremophor RH40) at different proportions, from 5%-90%, is added to 100 ml ginsenoside Rg3-ethanol solution, and then the mixture is subjected to artificial gastric or intestinal fluids for stability test. […] The highest proportion as determined, i.e., 50% or 175 mg is adopted for drug preparation. • 5. […]
• 1. […] The highest proportion as determined, i.e., 40% or 150 mg is adopted for drug preparation. • 5. […]

Structure (SMILES) | absorption rate from the GI tract [1] [%] | Amount completely dissolved in 100 ml 90% ethanol [2] [mg]
CC(C)=CCC[C@](C)(O[C@@H]1O[C@H](CO)[C@@H](O)[C@H](O)[C@H]1O)[C@H]1CC[C@]2(C)[C@@H]1[C@H](O)C[C@@H]1[C@@]3(C)CC[C@H](O)C(C)(C)[C@@H]3[C@@H](O[C@@H]3O[C@H](CO)[C@@H](O)[C@H](O)[C@H]3O)C[C@]12C [Rg1, ginsenoside Rg1] | 1.9 | –
CC(C)=CCC[C@@](C)(O)[C@H]1CC[C@]2(C)[C@@H]1[C@H](O)C[C@@H]1[C@@]3(C)CC[C@H](O)C(C)(C)[C@@H]3CC[C@]12C [aPPD, protopanoxadiol sapogenin aPPD] | – | 40
CC(C)=CCC[C@](C)(O)[C@H]1CC[C@]2(C)[C@@H]1[C@H](O)C[C@@H]1[C@@]3(C)CC[C@H](O[C@@H]4O[C@H](CO)[C@@H](O)[C@H](O)[C@H]4O)C(C)(C)[C@@H]3CC[C@]12C [Rh2, ginsenoside Rh2] | 3.4 | –
CC(C)=CCC[C@](C)(O)[C@H]1CC[C@]2(C)[C@@H]1[C@H](O)C[C@@H]1[C@@]3(C)CC[C@H](O[C@@H]4O[C@H](CO)[C@@H](O)[C@H](O)[C@H]4O[C@@H]4O[C@H](CO)[C@@H](O)[C@H](O)[C@H]4O)C(C)(C)[C@@H]3CC[C@]12C [Rg3, ginsenoside Rg3] | – | 100
CC(C)=CCC[C@](C)(O[C@@H]1O[C@H](CO[C@@H]2O[C@H](CO)[C@@H](O)[C@H](O)[C@H]2O)[C@@H](O)[C@H](O)[C@H]1O)[C@H]1CC[C@]2(C)[C@@H]1[C@H](O)C[C@@H]1[C@@]3(C)CC[C@H](O[C@@H]4O[C@H](CO)[C@@H](O)[C@H](O)[C@H]4O[C@@H]4O[C@H](CO)[C@@H](O)[C@H](O)[C@H]4O)C(C)(C)[C@@H]3CC[C@]12C [Rb1] | 1 | –
